According to patent publication US10947216B2, “Amide compounds and method for making and using” (Rigel Pharmaceuticals, Inc., priority 2016, dated 2021):
Where a name gives a salt, the structure may show the parent alone.

Key:
[1] = test system: IL-23p19; assay: LPS Induced IL23p19 in THP-1 Cells (with IFNγ Primed) Assay; assay type: cell-based, human; conditions: Homo sapiens, THP-1, THP-1 cells, IFNγ (50 ng/mL) primed, 1 hour compound pre-incubation, LPS 1 ug/mL 18 hours, 10 pt; read-out: IL23-p19 ELISA, THP1-IFNy, LPS, 10 pt EC50
Procedure, shortened: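 THP-1 cells (50K/well) primed ~18 h with IFNγ (50 ng/mL) in RPMI/10% FBS, then incubated with compound in duplicate for 18 h at 37° C. Supernatant IL-23p19 measured by chemiluminescent sandwich ELISA, giving EC50 by curve fitting. Toxicity assessed in parallel on the remaining cells by Cell Titer Glo.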

[2] = test system: IL-23 (p19/p40); assay: IL23-p19 ELISA, dendritic cells (DC differentiated from human PBMC, IFNγ primed), LPS stimulated; assay type: cell-based; conditions: Dendritic cell, human PBMC-derived dendritic cells, 1 h compound pre-incubation, LPS 1 μg/ml 18 hours, 10 pt
Procedure, shortened: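 PBMC-derived DCs (GM-CSF 100 ng/ml + IL-4 20 ng/ml, 7 days) primed 24 h with IFNγ 50 ng/ml, 50K cells/well; compound pre-incubated 1 h at 37° C, then LPS, 18 h. Supernatant IL-23 by p19-capture/p40-detection chemiluminescent ELISA; cytotoxicity by Cell Titer Glo.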

Row | Compound | EC50 [1] [nM] | EC50 [2] [nM]
1 | COCCOCCn1cc(NC(=O)c2cccc(-c3ccc(N)nc3)n2)c(-c2ccccn2)n1 [Compound I-142, 6′-amino-N-(1-(2-(2-methoxyethoxy)ethyl)-3-(pyridin-2-yl)-1H-pyrazol-4-yl)-[2,3′-bipyridine]-6-carboxamide formate] | 761 | 2540
2 | Cc1cncc(-c2cccc(C(=O)Nc3cn(C)nc3-c3ccc(N4CCN(C)CC4)cn3)n2)c1 [Compound I-177, 5′-methyl-N-(1-methyl-3-(5-(4-methylpiperazin-1-yl)pyridin-2-yl)-1H-pyrazol-4-yl)-[2,3′-bipyridine]-6-carboxamide dihydrochloride] | 21700 | 12200
3 | Cn1cc(NC(=O)c2cccc(-c3cccnc3)n2)c(-c2cnccn2)n1 [Compound I-101, N-(1-methyl-3-(pyrazin-2-yl)-1H-pyrazol-4-yl)-[2,3′-bipyridine]-6-carboxamide] | 14500 | 1830
4 | Cn1cc(-c2cccc(C(=O)Nc3cn(C4COC4)nc3-c3ccccn3)n2)cn1 [Compound I-134, 6-(1-methyl-1H-pyrazol-4-yl)-N-(1-(oxetan-3-yl)-3-(pyridin-2-yl)-1H-pyrazol-4-yl)picolinamide] | 1260 | 2200

Continued by falling EC50 [1], values first:

Row | EC50 [1] [nM] | EC50 [2] [nM] | Compound
5 | 26700 | 2040 | CC(=O)Nc1ccc(-c2cccc(C(=O)Nc3cn(C)nc3-c3cnccn3)n2)cn1 [Compound I-102, 6′-acetamido-N-(1-methyl-3-(pyrazin-2-yl)-1H-pyrazol-4-yl)-[2,3′-bipyridine]-6-carboxamide]
6 | 4500 | 6280 | COCCOCCn1cc(NC(=O)c2cccc(-c3cnn(-c4cccc(Cl)c4)c3)n2)c(-c2ccccn2)n1 [Compound I-148, 6-(1-(3-chiorophenyl)-1H-pyrazol-4-yl)-N-(1-(2-(2-methoxyethoxy)ethyl)-3-(pyridin-2-yl)-1H-pyrazol-4-yl)picolinamide formate]
7 | 772 | 3210 | Cn1cc(NC(=O)c2cccc(-c3cncc(NC4CCOCC4)c3)n2)c(-c2ccccn2)n1 [Compound I-30, N-(1-methyl-3-(pyridin-2-yl)-1H-pyrazol-4-yl)-5′-((tetrahydro-2H-pyran-4-yl)amino)-[2,3′-bipyridine]-6-carboxamide]
8 | 340 | 1190 | Cn1cc(NC(=O)c2cccc(-c3cc[nH]n3)n2)c(-c2ccc(OCC(C)(C)O)cn2)n1 [Compound I-180, N-(3-(5-(2-hydroxy-2-methylpropoxy)pyridin-2-yl)-1-methyl-1H-pyrazol-4-yl)-6-(1H-pyrazol-3-yl)picolinamide]
